Results as given in US10334854B2, “Herbicide combinations comprising glufosinate and indaziflam” (BAYER CROPSCIENCE AKTIENGESELLSCHAFT, priority 2016, dated 2019).

Legend:
[1] = tested on: monocotyledonous and dicotyledonous harmful plant species; conditions: stated as known; cited from earlier work
[2] = tested on: Amaranthus retroflexus; assay: Greenhouse pot trial, post-emergence herbicidal activity; format: in vivo; conditions: single post-emergence treatment, 12 g/ha of indaziflam, BBCH growth stage 11-12
Experimental: (§1) In separate pots, biological trials were conducted in the greenhouse under identical conditions (apart from the treatment with the different products P1 and P2 mentioned above). Each pot contained the same soil and the same amount of seeds of each of the following weeds (two monocotyledonous and two dicotyledonous harmful plant species (weed species)):
(§2) Tables 1 to 4 reflect the respective observed herbicidal activity ratings after treatment of the monocotyledonous harmful plant species (BBCH growth stage 11) and dicotyledonous harmful plant species (BBCH growth stage 10) for the different products applied once in post-emergence.
(§3) The observation period in each case was 40 days after start of treatment with the respective products P1 and P2 mentioned above, both in amounts of 3 L/ha and 5 L/ha, respectively.
(§4) Tables 5 to 8 reflect the respective observed herbicidal activity ratings after treatment of the monocotyledonous harmful plant species (BBCH growth stage 12-13) and dicotyledonous harmful plant species (BBCH growth stage 12) for the different products applied once in post-emergence. The observation period in each case was 40 days after start of treatment with the respective products P1 and P2 mentioned above, both in amounts of 3 L/ha and 5 L/ha, respectively.
(§5) Table 9 reflects the post-emergence efficacy of indaziflam [the ratio by weight of the (1*R)-1-fluoroethyl diastereoisomer of indaziflam to the ratio by weight of the (1*S)-1-fluoroethyl diastereoisomer of indaziflam was about 95:5] on the above mentioned weeds (two monocotyledonous and two dicotyledonous harmful plant species (weed species)) AMARE, STEME, LOLMU and POOAN, each at BBCH growth stage 11-12. Indaziflam was used in an amount of 12 g/ha.

[3] = tested on: Poa annua; assay: as above; format: in vivo; conditions: single post-emergence treatment, 12 g/ha of indaziflam, BBCH growth stage 11-12
Experimental: as §1, §2, §3, §4, §5

[4] = tested on: Stellaria media; assay: as above; format: in vivo; conditions: single post-emergence treatment, 12 g/ha of indaziflam, BBCH growth stage 11-12
Experimental: as §1, §2, §3, §4, §5

[5] = tested on: Lolium multiflorum; assay: as above; format: in vivo; conditions: single post-emergence treatment, 12 g/ha of indaziflam, BBCH growth stage 11-12
Experimental: as §1, §2, §3, §4, §5

Q: Which post-emergence efficacy [1] does the source give for Cc1ccc2c(c1)[C@H](Nc1nc(N)nc([C@@H](C)F)n1)[C@@H](C)C2 (mixture of isomers) [indaziflam, N^2-[(1R,2S)-2,3-dihydro-2,6-dimethyl-1H-inden-1-yl]-6-[(1RS)-1-fluoroethyl]-1,3,5-triazine-2,4-diamine] here?
A: insufficient

Q: What about the “Regrowth (ratings of herbicidal activity)” value (shortened to “Regrowth”) [2] of the same compound?
A: very weak herbicidal effect starting on day 7 after treatment

Q: What about the “Regrowth” value [3] of the same compound?
A: no herbicidal effect

Q: And the “Regrowth” value [4]?
A: no herbicidal effect

Q: What about the “Regrowth” value [5] of the same compound?
A: no herbicidal effect
